In patent US20260355323A1, “CEREBLON-RECRUITING BCL-XL/BCL-2 DUAL DEGRADERS” (University of Florida Research Foundation, Incorporated, priority 2022, published 2026):

Legend:
[1] = tested on: RS4;11 acute lymphoblastic leukemia cells; assay: Cell viability, tetrazolium-based MTS assay, RS4;11; conditions: Homo sapiens, RS4;11, 48 h, read-out: Anti-Cancer Activity EC50 (48 hr), RS4
Method: (§1) Acute lymphoblastic leukemia cells (MOLT-4 and RS4;11) were incubated with increasing concentrations of Bcl-xL/Bcl-2 degraders for 48 h. Cell viability was measured by tetrazolium-based MTS assay.

[2] = tested on: MOLT-4 acute lymphoblastic leukemia cells; assay: Cell viability, tetrazolium-based MTS assay, MOLT-4; conditions: Homo sapiens, MOLT-4, 48 h; read-out: Anti-Cancer Activity EC50 (48 hr), MOLT-4
Method: as §1

[3] = tested on: WI-38 NC; assay: Senolytic activity, cell viability (PrestoBlue HS), WI-38 NC; format: cell-based; conditions: for EC50: Homo sapiens, 72 h
Method: WI-38 and HUVEC cells were incubated with increasing concentrations of degraders for 72 h. Cell viability was measured using PrestoBlue HS cell viability reagent.

| EC50 [1] | EC50 [2] | SMILES | EC50 [3] | Senolytic Activity EC50 (72 hr), WI-38 NC [3] |
| --- | --- | --- | --- | --- |
| 1 to 10 nM | < 1 nM | C[C@@]1(CN2CCN(CC#Cc3ccc4c(c3)CN(C3CCC(=O)NC3=O)C4=O)CC2)CCC(c2ccc(Cl)cc2)=C(CN2CCN(c3ccc(C(=O)NS(=O)(=O)c4ccc(N[C@H](CCN5CCCOCC5)CSc5ccccc5)c(S(=O)(=O)C(F)(F)F)c4)cc3)CC2)C1 (stereo partly drawn) [Compound 26, N-((4-(((R)-4-(1,4-oxazepan-4-yl)-1-(phenylthio)butan-2-yl)amino)-3-((trifluoromethyl)sulfonyl)phenyl)sulfonyl)-4-(4-(((4R)-4′-chloro-4-((4-(3-(2-(2,6-dioxopiperidin-3-yl)-1-oxoisoindolin-5-yl)prop-2-yn-1-yl)piperazin-1-yl)methyl)-4-methyl-3,4,5,6-tetrahydro-[1,1′-biphenyl]-2-yl)methyl)piperazin-1-yl)benzamide] | > 10000 nM | – |
| < 1 nM | < 1 nM | CC1CN(c2ccc3c(c2)CN(C2CCC(=O)NC2=O)C3=O)CC(C)N1CC1CCN(C[C@]2(C)CCC(c3ccc(Cl)cc3)=C(CN3CCN(c4ccc(C(=O)NS(=O)(=O)c5ccc(N[C@H](CCN6CCCOCC6)CSc6ccccc6)c(S(=O)(=O)C(F)(F)F)c5)cc4)CC3)C2)CC1 (stereo partly drawn) [Compound 50, N-((4-(((R)-4-(1,4-oxazepan-4-yl)-1-(phenylthio)butan-2-yl)amino)-3-((trifluoromethyl)sulfonyl)phenyl)sulfonyl)-4-(4-(((4R)-4′-chloro-4-((4-((4-(2-(2,6-dioxopiperidin-3-yl)-1-oxoisoindolin-5-yl)-2,6-dimethylpiperazin-1-yl)methyl)piperidin-1-yl)methyl)-4-methyl-3,4,5,6-tetrahydro-[1,1′-biphenyl]-2-yl)methyl)piperazin-1-8 yl)benzamide] | – | ++ (100-10 μM) |
| 1 to 10 nM | 1 to 10 nM | CC(C)N(CC#Cc1ccc2c(c1)CN(C1CCC(=O)NC1=O)C2=O)C[C@]1(C)CCC(c2ccc(Cl)cc2)=C(CN2CCN(c3ccc(C(=O)NS(=O)(=O)c4ccc(N[C@H](CCN5CCCOCC5)CSc5ccccc5)c(S(=O)(=O)C(F)(F)F)c4)cc3)CC2)C1 (stereo partly drawn) [Compound 38, N-((4-(((R)-4-(1,4-oxazepan-4-yl)-1-(phenylthio)butan-2-yl)amino)-3-((trifluoromethyl)sulfonyl)phenyl)sulfonyl)-4-(4-(((4R)-4′-chloro-4-(((3-(2-(2,6-dioxopiperidin-3-yl)-1-oxoisoindolin-5-yl)prop-2-yn-1-yl) (isopropyl)amino)methyl)-4-methyl-3,4,5,6-tetrahydro-[1,1′-biphenyl]-2-yl)methyl)piperazin-1-yl)benzamide] | > 10000 nM | – |
| < 1 nM | < 1 nM | CC1(CN2CCN(C(=O)CN3CCN(C(=O)CNc4ccc5c(c4)C(=O)N(C4CCC(=O)NC4=O)C5=O)CC3)CC2)CCC(c2ccc(Cl)cc2)=C(CN2CCN(c3ccc(C(=O)NS(=O)(=O)c4ccc(N[C@H](CCN5CCOCC5)CSc5ccccc5)c(S(=O)(=O)C(F)(F)F)c4)cc3)CC2)C1 (stereo partly drawn) [Compound 17, 4-(4-((4′-chloro-4-((4-(2-(4-((2-(2,6-dioxopiperidin-3-yl)-1,3-dioxoisoindolin-5-yl)glycyl)piperazin-1-yl)acetyl)piperazin-1-yl)methyl)-4-methyl-3,4,5,6-tetrahydro-[1,1′-biphenyl]-2-yl)methyl)piperazin-1-yl)-N-((4-(((R)-4-morpholino-1-(phenylthio)butan-2-yl)amino)-3-((trifluoromethyl)sulfonyl)phenyl)sulfonyl)benzamide] | > 10000 nM | – |
| < 1 nM | < 1 nM | C[C@@]1(CN2CCN(CCC#Cc3ccc4c(c3)CN(C3CCC(=O)NC3=O)C4=O)CC2)CCC(c2ccc(Cl)cc2)=C(CN2CCN(c3ccc(C(=O)NS(=O)(=O)c4ccc(N[C@H](CCN5CCCOCC5)CSc5ccccc5)c(S(=O)(=O)C(F)(F)F)c4)cc3)CC2)C1 (stereo partly drawn) [Compound 40, N-((4-(((R)-4-(1,4-oxazepan-4-yl)-1-(phenylthio)butan-2-yl)amino)-3-((trifluoromethyl)sulfonyl)phenyl)sulfonyl)-4-(4-(((4R)-4′-chloro-4-((4-(4-(2-(2,6-dioxopiperidin-3-yl)-1-oxoisoindolin-5-yl)but-3-yn-1-yl)piperazin-1-yl)methyl)-4-methyl-3,4,5,6-tetrahydro-[1,1′-biphenyl]-2-yl)methyl)piperazin-1-yl)benzamide] | > 10000 nM | – |
| < 1 nM | < 1 nM | C[C@@]1(CN2CCN(C(=O)CCCCCN3CCN(c4ccc5c(c4)CN(C4CCC(=O)NC4=O)C5=O)CC3)CC2)CCC(c2ccc(Cl)cc2)=C(CN2CCN(c3ccc(C(=O)NS(=O)(=O)c4ccc(N[C@H](CCN5CCCOCC5)CSc5ccccc5)c(S(=O)(=O)C(F)(F)F)c4)cc3)CC2)C1 (stereo partly drawn) [Compound 3, N-((4-(((R)-4-(1,4-oxazepan-4-yl)-1-(phenylthio)butan-2-yl)amino)-3-((trifluoromethyl)sulfonyl)phenyl)sulfonyl)-4-(4-(((4R)-4′-chloro-4-((4-(6-(4-(2-(2,6-dioxopiperidin-3-yl)-1-oxoisoindolin-5-yl)piperazin-1-yl)hexanoyl)piperazin-1-yl)methyl)-4-methyl-3,4,5,6-tetrahydro-[1,1′-biphenyl]-2-yl)methyl)piperazin-1-yl)benzamide] | > 10000 nM | – |
| 1 to 10 nM | < 1 nM | CN(CC#Cc1ccc2c(c1)CN(C1CCC(=O)NC1=O)C2=O)C[C@]1(C)CCC(c2ccc(Cl)cc2)=C(CN2CCN(c3ccc(C(=O)NS(=O)(=O)c4ccc(N[C@H](CCN5CCCOCC5)CSc5ccccc5)c(S(=O)(=O)C(F)(F)F)c4)cc3)CC2)C1 (stereo partly drawn) [Compound 37, N-((4-(((R)-4-(1,4-oxazepan-4-yl)-1-(phenylthio)butan-2-yl)amino)-3-((trifluoromethyl)sulfonyl)phenyl)sulfonyl)-4-(4-(((4R)-4′-chloro-4-(((3-(2-(2,6-dioxopiperidin-3-yl)-1-oxoisoindolin-5-yl)prop-2-yn-1-yl)(methyl)amino)methyl)-4-methyl-3,4,5,6-tetrahydro-[1,1′-biphenyl]-2-yl)methyl)piperazin-1-yl)benzamide] | > 10000 nM | – |
| 1 to 10 nM | 1 to 10 nM | C[C@@]1(CN2CC(CN3CC4CC3CN4c3ccc4c(c3)CN(C3CCC(=O)NC3=O)C4=O)C2)CCC(c2ccc(Cl)cc2)=C(CN2CCN(c3ccc(C(=O)NS(=O)(=O)c4ccc(N[C@H](CCN5CCCOCC5)CSc5ccccc5)c(S(=O)(=O)C(F)(F)F)c4)cc3)CC2)C1 (stereo partly drawn) [Compound 131, N-((4-(((R)-4-(1,4-oxazepan-4-yl)-1-(phenylthio)butan-2-yl)amino)-3-((trifluoromethyl)sulfonyl)phenyl)sulfonyl)-4-(4-(((4R)-4′-chloro-4-((3-((5-(2-(2,6-dioxopiperidin-3-yl)-1-oxoisoindolin-5-yl)-2,5-diazabicyclo[2.2.1]heptan-2-yl)methyl)azetidin-1-yl)methyl)-4-methyl-3,4,5,6-tetrahydro-[1,1′-biphenyl]-2-yl)methyl)piperazin-1-yl)benzamide] | > 10000 nM | – |
| < 1 nM | < 1 nM | C[C@@]1(CN2CCC(CCc3ccc4c(c3)CN(C3CCC(=O)NC3=O)C4=O)CC2)CCC(c2ccc(Cl)cc2)=C(CN2CCN(c3ccc(C(=O)NS(=O)(=O)c4ccc(N[C@H](CCN5CCCOCC5)CSc5ccccc5)c(S(=O)(=O)C(F)(F)F)c4)cc3)CC2)C1 (stereo partly drawn) [Compound 46, N-((4-(((R)-4-(1,4-oxazepan-4-yl)-1-(phenylthio)butan-2-yl)amino)-3-((trifluoromethyl)sulfonyl)phenyl)sulfonyl)-4-(4-(((4R)-4′-chloro-4-((4-(2-(2-(2,6-dioxopiperidin-3-yl)-1-oxoisoindolin-5-yl)ethyl)piperidin-1-yl)methyl)-4-methyl-3,4,5,6-tetrahydro-[1,1′-biphenyl]-2-yl)methyl)piperazin-1-yl)benzamide] | > 10000 nM | – |
| 10 to 100 nM | 10000 to 100000 nM | CC1(CN2CCN(c3ccc(C#CCCCN4CCN(c5cccc6c5C(=O)N(C5CCC(=O)NC5=O)C6=O)CC4)cn3)CC2)CCC(c2ccc(Cl)cc2)=C(CN2CCN(c3ccc(C(=O)NS(=O)(=O)c4ccc(N[C@H](CCN5CCOCC5)CSc5ccccc5)c(S(=O)(=O)C(F)(F)F)c4)cc3)CC2)C1 (stereo partly drawn) [Compound 23, 4-(4-((4′-chloro-4-((4-(5-(5-(4-(2-(2,6-dioxopiperidin-3-yl)-1,3-26 dioxoisoindolin-4-yl)piperazin-1-yl)pent-1-yn-1-yl)pyridin-2-yl)piperazin-1-yl)methyl)-4-methyl-3,4,5,6-tetrahydro-[1,1′-biphenyl]-2-yl)methyl)piperazin-1-yl)-N-((4-(((R)-4-morpholino-1-(phenylthio)butan-2-yl)amino)-3-28 ((trifluoromethyl)sulfonyl)phenyl)sulfonyl)benzamide] | – | – |
| 1 to 10 nM | 1 to 10 nM | C[C@@]1(CN2CCC(CN3CCN(c4ccc(C(=O)N[C@@H]5CCC(=O)NC5=O)c(F)c4)CC3)CC2)CCC(c2ccc(Cl)cc2)=C(CN2CCN(c3ccc(C(=O)NS(=O)(=O)c4ccc(N[C@H](CCN5CCCOCC5)CSc5ccccc5)c(S(=O)(=O)C(F)(F)F)c4)cc3)CC2)C1 [Compound 138, 4-(4-((1-(((R)-6-((4-(4-(((4-(((R)-4-(1,4-oxazepan-4-yl)-1-(phenylthio)butan-2-yl)amino)-3-((trifluoromethyl)sulfonyl)phenyl)sulfonyl)carbamoyl)phenyl)piperazin-1-yl)methyl)-4′-chloro-4-methyl-2,3,4,5-tetrahydro-[1,1′-biphenyl]-4-yl)methyl)piperidin-4-yl)methyl)piperazin-1-yl)-N-((R)-2,6-dioxopiperidin-3-yl)-2-fluorobenzamide] | – | – |
